Experiment [1] has as its system T1, MCM double hexamer (MCM-DH, Mcm2-7).
T1 construct: endogenous double hexamer from G1 chromatin, TEV-3xFLAG tag on Mcm7 or Mcm2
In words: cryo-EM structure. Also on record: species or system Saccharomyces cerevisiae. The note with it: with DDK bound, nucleotide-binding pockets of MCM subunits.

A further experiment has as its target T2, DDK (Dbf4-Cdc7 kinase) (Saccharomyces cerevisiae, UniProt P06243).
T2 construct: Dbf4 704 residues; with DDK kinase regulatory subunit DBF4
The experiment is described as follows: cryo-EM structure. In kind it is binding. The note with it: bound to MCM double hexamer, glutaraldehyde Grafix, 1 mM ATP-γ-S, 8 mM Mg(OAc)2; Cdc7 active center.

T2 sequence (P06243 whole entry): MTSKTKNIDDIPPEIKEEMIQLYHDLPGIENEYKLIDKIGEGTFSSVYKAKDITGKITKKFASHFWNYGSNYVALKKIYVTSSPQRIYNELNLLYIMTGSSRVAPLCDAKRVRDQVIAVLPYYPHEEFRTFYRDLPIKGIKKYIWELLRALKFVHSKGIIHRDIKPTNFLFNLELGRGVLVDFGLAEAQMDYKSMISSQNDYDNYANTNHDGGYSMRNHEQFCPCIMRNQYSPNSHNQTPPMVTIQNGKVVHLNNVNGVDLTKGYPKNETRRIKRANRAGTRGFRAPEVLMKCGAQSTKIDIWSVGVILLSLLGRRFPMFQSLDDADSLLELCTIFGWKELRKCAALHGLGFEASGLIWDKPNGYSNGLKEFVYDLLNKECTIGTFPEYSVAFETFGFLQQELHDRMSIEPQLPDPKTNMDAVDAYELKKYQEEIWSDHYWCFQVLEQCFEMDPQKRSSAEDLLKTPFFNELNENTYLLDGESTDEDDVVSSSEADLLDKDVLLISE
T2 sequence (P32325 whole entry partner): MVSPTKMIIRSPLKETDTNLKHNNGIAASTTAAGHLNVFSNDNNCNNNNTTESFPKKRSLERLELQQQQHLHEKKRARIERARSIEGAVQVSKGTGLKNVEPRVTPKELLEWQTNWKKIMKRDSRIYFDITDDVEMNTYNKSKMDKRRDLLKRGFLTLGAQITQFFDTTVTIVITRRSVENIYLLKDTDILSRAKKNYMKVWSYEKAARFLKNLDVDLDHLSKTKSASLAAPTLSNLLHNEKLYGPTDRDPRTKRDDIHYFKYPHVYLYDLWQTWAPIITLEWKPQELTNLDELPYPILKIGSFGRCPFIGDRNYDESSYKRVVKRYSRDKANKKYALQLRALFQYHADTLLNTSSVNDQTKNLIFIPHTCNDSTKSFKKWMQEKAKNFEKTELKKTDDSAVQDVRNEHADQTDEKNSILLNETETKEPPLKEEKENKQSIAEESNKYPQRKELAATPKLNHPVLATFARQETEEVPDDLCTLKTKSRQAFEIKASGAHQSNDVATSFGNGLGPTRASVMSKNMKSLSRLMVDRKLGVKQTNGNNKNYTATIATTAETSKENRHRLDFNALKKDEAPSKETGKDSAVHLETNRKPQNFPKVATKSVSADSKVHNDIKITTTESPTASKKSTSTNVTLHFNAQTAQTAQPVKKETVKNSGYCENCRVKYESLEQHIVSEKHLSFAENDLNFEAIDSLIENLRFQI

With `Nc1ncnc2c1ncn2[C@@H]1O[C@H](COP(=O)(O)OP(=O)(O)O)[C@@H](O)[C@H]1O` [ADP], the cryo-EM structure entry in experiment [1] (no ADP added) is “nucleotide-binding pockets of MCM subunits were modeled as ATP-γ-S or ADP”.
On to `Nc1ncnc2c1ncn2[C@@H]1O[C@H](COP(=O)(O)OP(=O)(O)OP(O)(O)=S)[C@@H](O)[C@H]1O` [ATP-γ-S], for which the cryo-EM structure result in experiment [1] (1 mM ATP-γ-S) was “nucleotide-binding pockets of MCM subunits were modeled as ATP-γ-S or ADP”; at DDK (Dbf4-Cdc7 kinase), “Thr506, is situated close to the γ-phosphate of the ATP-γ-S nucleotide in the active center”.

Values taken from article PMC8927117, “Structural Insight into the MCM double hexamer activation by Dbf4-Cdc7 kinase” (Nature Communications, 2022).
